Data published in ChEMBL document CHEMBL3507680, “University of Dundee, Gates Library screen for HepG2 cell viability”.

Assay: Human HepG2 cell viability assay in 384 well format
Format: toxicity, cell-based
Design: dose 125 nL, time 70.5 hour; cytotoxicity at 70.5 h: concentration not given beside the values
Conditions: HepG2 cells, read-out: Inhibition

Row | SMILES | cytotoxicity at 70.5 h
1 | Cn1cc(CN2CCC[C@]3(C[C@@H](Oc4ncccc4F)CO3)C2)cn1 | -6.45%
2 | CC(C)C(=O)NCCc1nc(-c2ccncc2)n[nH]1 | -2.41%
3 | CC(C)N1CCO[C@H]2CN(C(=O)c3ccncc3)C[C@H]21 | 11.9%
4 | N#Cc1ccc(NC2CCN(c3ncccn3)CC2)cc1Cl | 7.18%
5 | CCOC1CCN(C(=O)c2cc(-c3ccc(Cl)cc3)on2)CC1 | -5.56%
6 | Cn1cc(CN2CCc3nc4ccccc4c(=O)n3CC2)cn1 | -1.93%
7 | CNC(=O)Cc1ccc(NC(=O)NC(C)C(C)C)cc1 (stereo not drawn) | -15.4%
8 | CNC(=O)NC(=O)CN1CCN(c2ccc(C(=O)OC)cc2)CC1C (stereo not drawn) | -7.85%
9 | COc1ccc(C2CCCN2c2cnccn2)c(OC)c1 (stereo not drawn) | -2.67%
10 | O=C(NCCc1c[nH]cn1)c1n[nH]c2c1CCC2 | -8.54%
11 | CC(Cn1cccn1)NCc1nc(-c2cccs2)no1 (stereo not drawn) | 3.96%
12 | CC(=O)N1CCC(c2cnc(NC3CCOCC3)cn2)CC1 | -6.84%
13 | O=C(c1ccnnc1)N1C[C@@H](OCC2CCCC2)[C@H]2OCCC[C@H]21 | -3.04%
14 | OCC1(O)CCN(c2ncccc2C(F)(F)F)CC1 | -0.128%
15 | CC(C)SCc1cccc(NC(=O)NCCc2nnc[nH]2)c1 | 11.5%
16 | O=C(c1nccc2ccccc12)N(Cc1ccco1)CC1CCCO1 (stereo not drawn) | 9.69%
17 | O=C(Nc1cc(F)ccc1OCC1CCCO1)N1CCCC1 (stereo not drawn) | -17.1%
18 | CS(=O)(=O)N1CCCC(Cc2ccnc(Nc3ccccn3)c2)C1 (stereo not drawn) | -6.97%
19 | Cc1cnn(C2CN(Cc3nnc(Cc4ccccc4)o3)C2)c1 | -13.1%
20 | c1ccn2cc(CN3CCCC(c4ccn[nH]4)C3)nc2c1 (stereo not drawn) | 25.3%
21 | COc1ccc(C(C(=O)O)N2CCC(O)(c3cccnc3)CC2)cc1F (stereo not drawn) | 6.42%
22 | CC(=O)N(C)Cc1cccc(NC(=O)CCCc2nc(C(C)C)no2)c1 | 9.44%
23 | Cc1cc(C)c2ncn(CCC(C)O)c(=O)c2c1 (stereo not drawn) | -5.19%

Row | SMILES | cytotoxicity at 70.5 h
24 | Cc1cccc(CN2CC[C@H]3C[C@H](C)O[C@@H]3C2)n1 | -4.58%
25 | O=C(O)c1ccc(CNC(=O)C2CCN(C(=O)C3CCC3)CC2)s1 | -12.2%
26 | CC(C)c1nccc(CN(C)Cc2cccc(-n3cccn3)c2)n1 | -1.47%
27 | Cc1nc(CN2CCOC(c3ccc(Cl)cc3)C2)oc1C (stereo not drawn) | -7.95%
28 | CN1Cc2cnn(CC3CCCC3)c2C(COCC2CC2)C1 (stereo not drawn) | -1.16%
29 | CCc1[nH]ncc1C(=O)N1CCCN(Cc2cnn(C(C)C)c2)CC1 | 6.52%
30 | CC1=Nc2c(c(=O)[nH]n2C2CCCCC2)C(c2cccnc2)S1 (stereo not drawn) | -12%
31 | O=C(NCCCn1nc2ccccn2c1=O)NCC(C1CC1)C1CC1 | -12.3%
32 | CCc1cnc(CN(C)C2CCN(CCNS(=O)(=O)CC)C2)o1 (stereo not drawn) | 2.11%
33 | Cc1c[nH]cc1C(=O)N1CCN(Cc2nc(C(C)C)no2)CC1 | -15.1%
34 | CCN1CCN(c2ncc3c(n2)CN(c2cnn(CC)c2)C3=O)CC1 | -6.35%
35 | COc1cc(OC)c(C2CC(=O)Oc3cc(C)[nH]c(=O)c32)cc1OC (stereo not drawn) | -19.4%
36 | Cc1cc(C)c(CNC(=O)NCCCNc2ccccn2)c(=O)[nH]1 | 6.35%
37 | COCCNC(=O)[C@@]12CCO[C@@H]1CCN(Cc1ccc(OC)cc1)C2 | -5.1%
38 | Cc1nccn1CCC1CCN(C2CCC3(CCNCC3)CC2)CC1 | 13.6%
39 | Cc1cc(CN2CCCC2)cc(Oc2nc(C)cnc2C)c1 | -5.62%
40 | CCCc1n[nH]cc1C(=O)N1CCCC(c2nccn2CC2CC2)C1 (stereo not drawn) | -6.16%
41 | O=C(NC[C@@H]1C[C@@H]2CN(C(=O)CO)C[C@H]2O1)c1ccsc1 | 21%
42 | COCC(=O)N1CCC2(CCN(Cc3ccccn3)CC2)CC1 | -23.5%
43 | Cn1cc(S(=O)(=O)Nc2c(F)cccc2N2CCCC2)cn1 | -4.97%
44 | Cc1n[nH]c(C)c1CCC(=O)NC1CCCN(c2ccccc2F)C1 (stereo not drawn) | 6.82%
45 | CC(C)(C)OC(=O)N1CCCN1C(=O)c1cccc(F)c1F | -5.84%
46 | Cc1nnc(N2CCCC3(CN(Cc4cccnc4)CCO3)C2)o1 (stereo not drawn) | -4.29%

Row | SMILES | cytotoxicity at 70.5 h
47 | COC(=O)Cn1c(=O)nc2n1C(=O)N(c1ccccc1)C2 | -8.59%
48 | O=C(NC1CCCN(c2ccc(OC(F)F)cc2)C1)c1cc[nH]n1 (stereo not drawn) | -11.9%
49 | CCCNC(=O)N1CCc2ccc(S(=O)(=O)N3CCN(C)CC3)cc2C1 | -16.2%
50 | c1ccc2c(N3CCCCC3Cn3cccn3)ncnc2c1 (stereo not drawn) | -1.4%
51 | O=C(Cc1c[nH]c(=O)[nH]c1=O)N1CCCCC1CCc1ccccc1 (stereo not drawn) | 3.58%
52 | Cn1nnc2c1C(COCC1CC1)CN(Cc1ccoc1)C2 (stereo not drawn) | -9.19%
53 | O=C([C@@H]1COC[C@H]2CN(C3CCCC3)C[C@H]21)N1CCC(F)CC1 | -1.78%
54 | C[C@@H]1CN(C2(C(=O)N3CCCCCC3)Cc3ccccc3C2)C[C@H](C)O1 | -7.47%
55 | CN(C)[C@@H]1CN(C(=O)Cc2cccc(F)c2)[C@@H]2CCCO[C@H]12 | -1.9%
56 | O=C(NCc1cccc(-n2cncn2)c1)NCC(C1CC1)C1CC1 | -5.02%
57 | Cc1cc2n(n1)CC(CNCc1ccnc(-n3ccnc3C)c1)CN2 (stereo not drawn) | 0.264%
58 | CSCC[C@H]1CN2CCC[C@H]2CN1Cc1coc2ccc(C)cc2c1=O | 1.94%
59 | O=C1CC[C@@H]2[C@@H](CCN2Cc2ccccn2)N1CC1CC1 | -3.44%
60 | Cc1nc(-c2ccco2)ccc1C(=O)NCCCN1CCOCC1 | -98.3%
61 | Cc1cnc(C(=O)N2CC[C@@H]3CN(c4ncccn4)CCO[C@@H]3C2)cn1 | -4.8%
62 | c1cc(CN2CCN(Cc3cscn3)CC2)cs1 | -6.89%
63 | CCc1cnc(N)nc1N1CCCC2(CCOCC2)C1 | -3.13%
64 | COCCn1ccnc1C1CCN(Cc2ccccc2C#N)CC1 | -8.7%
65 | CN(C)CCN(CC1CCCO1)C(=O)Cc1cn2ccccc2n1 (stereo not drawn) | 17.3%
66 | COCC1CN(C(=O)c2cnc(C)cn2)Cc2ncnn2C1 (stereo not drawn) | 19%
67 | Cc1cccnc1NCCNC(=O)C1CCN(Cc2ccco2)CC1 | 9.3%
68 | COCCOCC(=O)Nc1ccc(C)cc1Br | -3.99%
69 | CCN(C)c1ncnc2c1CCN(Cc1ccc(F)cc1)CC2 | 19.9%

Row | SMILES | cytotoxicity at 70.5 h
70 | CC(C)(C)CN1CC[C@H](c2nnc(Cc3c[nH]c4ccccc34)o2)C1 | 15.2%
71 | CS(=O)(=O)NC1CCCN(C(=O)NCc2cc[nH]n2)C1 (stereo not drawn) | 10.8%
72 | CCOc1ccc(Cl)cc1C1CCCCN1 (stereo not drawn) | -17.3%
73 | CC(NCC(=O)N(C)C1CC1)c1ccc(S(C)(=O)=O)c(F)c1 (stereo not drawn) | -9.06%
74 | Cc1nn(C)c(C)c1C(C(=O)O)N1CCc2ccccc2C1 (stereo not drawn) | 0.959%
75 | CN(CC(O)CO)c1nc(-c2cccnc2)nc2c1CCNC2 (stereo not drawn) | -17.2%
76 | CN1CCC(CCc2ccnc(NC(=O)c3ccccn3)c2)CC1 | 15.4%
77 | CN1CCOC(CNCc2csc(C3CCCCC3)n2)C1 (stereo not drawn) | -13.3%
78 | Cc1nn(C)c2ncc(S(=O)(=O)N3CCN4CCCC4C3)cc12 (stereo not drawn) | -7.68%
79 | O=C(O)c1cn(CC2CCCN(c3cnc4ccccc4n3)C2)nn1 (stereo not drawn) | -3.54%
80 | COc1cc(CC2CC(C(N)=O)=NO2)cc2c1OCO2 (stereo not drawn) | -7.88%
81 | O=C(Nc1ccccc1OCC(F)F)N[C@@H]1C=C[C@H](CO)C1 | 4.97%
82 | CC(=O)NCCc1ncnn1-c1ccc(F)c(Cl)c1 | 7.55%
83 | [O-][S+](CCN1CCc2[nH]nc(C(F)(F)F)c2C1)c1ccccc1 (stereo not drawn) | -6.21%
84 | c1cc(CNc2ccc(-c3nc(C4CC4)no3)cn2)no1 | -8.43%
85 | COCCN(C)Cc1nc(-c2cccc(F)c2F)oc1C | -11.3%
86 | O=C(CN1CCCC1c1nc(-c2ccccc2)no1)N1CCOCC1 (stereo not drawn) | -4.9%
87 | OCC1(CC2CC2)CCCN(Cc2cnc(C3CCCCC3)nc2)C1 (stereo not drawn) | -5.05%
88 | CN(C)c1cc(CNC(=O)c2ccccc2Cl)ccn1 | 1.6%
89 | CCc1nc(C2CCCN2C(=O)c2ccc3c(c2)COC3)no1 (stereo not drawn) | -2.9%
90 | COc1cc(N2C[C@H]3CCN(CCN4CCCC4)C[C@H]3C2)ncn1 | -1.14%
91 | CC(c1nc(C(C)(C)C)no1)S(=O)(=O)CC(=O)N1CCCC1 (stereo not drawn) | -2.18%
92 | Cc1nonc1OCCNC(=O)COc1ccc(F)cc1F | -12.2%

Row | SMILES | cytotoxicity at 70.5 h
93 | CCNC(=O)NCCc1csc(N2CCCC2)n1 | -9.41%
94 | Cc1ccnc(C2CN(Cc3cnn(-c4ccccc4C(=O)O)c3)C2)n1 | -6.57%
95 | Cn1cc(C2CCCN2Cc2csc(Cc3ccccc3)n2)cn1 (stereo not drawn) | -8.68%
96 | O=C1CCc2cc(S(=O)(=O)NC(=O)c3ccc4c(c3)OCO4)ccc2N1 | -15.2%
97 | Cc1ccc(CN2CCC3(CC2)CC(CC(=O)NC(C)C)CO3)s1 (stereo not drawn) | -7.06%
98 | O=C(CNC1(CCO)CCOCC1)Nc1ccc(F)cc1F | 10.9%
99 | CCS(=O)(=O)N1CCC2(CC1)CC[C@@]1(C(=O)NC)CN(C(C)=O)C[C@@H]21 | 11%
100 | COc1ccccc1CN(Cc1cccc(C)c1)C(=O)[C@@H](N)CC(=O)O | 8.65%
101 | CCCN1CCC(CNC(=O)N2CCCC2c2c(C)n[nH]c2C)CC1 (stereo not drawn) | 3.87%
102 | FC(F)(F)COc1ccc(CSCc2ccon2)cn1 | -8.78%
103 | Cc1cc(C(=O)NCc2ccnc(N3CCN(C)CC3)c2)no1 | -0.337%
104 | CCC(O)CN1CCN(C(=O)c2cccn2Cc2cccs2)CC1 (stereo not drawn) | -17.9%
105 | CC(C)n1ccnc1C1CCN(C(=O)c2ccccc2N(C)C)CC1 | -2.41%
106 | CNC(=O)C1(C)CCCN1Cc1cnn(C)c1C (stereo not drawn) | -8.11%
107 | Cc1nc(N(C)C)nc2c1COCC21CCN(C(=O)NC(C)C)C1 (stereo not drawn) | 4.31%
108 | COc1cc(C)sc1C(=O)NCCNc1ccccc1 | 11.2%
109 | CC(C)(C)c1ccc(C2(C(=O)NCCS(C)(=O)=O)CC2)cc1 | -6.58%
110 | Cc1csc(CNC(=O)NCC(O)c2ccc(F)c(F)c2)n1 (stereo not drawn) | 10.8%
111 | O=C(O)c1ccc(F)c(S(=O)(=O)Nc2ccc(-n3cccn3)c(Cl)c2)c1 | -6.87%
112 | O=S(=O)(CCOc1ccc(F)cc1)Nc1cnn(CC(F)F)c1 | -6.59%
113 | Cc1ccc2nc(C3CCCN3Cc3scnc3C)[nH]c2c1 (stereo not drawn) | -6.86%
